Tests used:
Format in all cases: cell-based, human
[1] = system: TNFα receptor type I expression in epithelial cells; assay: Effect of IL-13 and IL-15 on TNFα receptor type I expression in epithelial cells
Experimental: (§1) Cells. Uterine tissue was collected and endometrial stromal cells and their culture conditions were isolated as described previously. Tang et al., Endocrinology 135:450, 1994. The isolated glandular epithelial and stromal cells were grown as monolayers in DMEM-Ham's F-12 (1:1, v/v) supplemented with 10% fetal bovine serum (FBS). Their purity and homogeneity were determined immunocytochemically by the use of monoclonal antibodies to human desmin, smooth muscle α-actin, cytokeratin 19 and vimentin.
(§2) To determine whether IL-13 and IL-15 alter the expression of tumor necrosis factor alpha receptor, the stromal and epitheleal cells (isolated as described in Example3) were cultured, made quiescent, and then treated with IL-13 and IL-15 at appropriate concentration added to medium containing 2% cFBS. After specific time intervals the culture condition media were collected and assay for TNF-α receptor type I as previously described (Faber et al., Obstet Gynecol 98:668–673, 2001; Chegini et al., J Soc Gynecol Invest 6. 154–157, 1999) using ELISA and comparison to known concentrations of standard (R & D system).

[2] = system: TNFα receptor type I expression in stromal cells; assay: Effect of IL-13 and IL-15 on TNFα receptor type I expression in stromal cells
Experimental: as §1, §2

[3] = system: IL-13 expression in endometrial epithelial cells; assay: Effect of ovarian steroids on IL-13 expression in endometrial epithelial cells (quantitative RT-PCR, ELISA); conditions: for IL-13 expression, mRNA and protein level (summary statement): endometrial epithelial cells; for IL-13 expression compared to control cells: epithelial cells
Experimental: (§3) Cells. Uterine tissue was collected and endometrial stromal cells and their culture conditions were isolated as described previously. Tang et al., Endocrinology 135:450, 1994. The isolated glandular epithelial and stromal cells were grown as monolayers in DMEM-Ham's F-12 (1:1, v/v) supplemented with 10% fetal bovine serum (FBS). Their purity and homogeneity were determined immunocytochemically by the use of monoclonal antibodies to human desmin, smooth muscle α-actin, cytokeratin 19 and vimentin. Ovarian Steroids. To determine the effect of ovarian steroids regulate IL-13 and IL-15 expression in endometrial epithelial and stromal cells, cells were subcultured in 6-well dishes at an approximate density of at 10^6 cells/well, and incubated with phenol-free media containing 10% charcoal-stripped FBS for 48 hrs. The cells were made quiescent under a serum-free condition for 24 hrs, and then treated with E2 (17 β estradiol), MPA (medroxyprogesterone acetate) or E2+MPA either alone or in appropriate combinations, added to phenol-free medium containing 2% charcoal-stripped FBS (cFBS) (Hyclone, Logan, Utah). The level of IL-13 and IL-15 mRNA and protein was determined as described above after appropratie time intervals using quantitative RT-PCR and ELISA.

[4] = system: endometrial stromal cells; assay: 3H-thymidine incorporation and cell proliferation (MTT) assay, stromal cells
Experimental: as §1
(§4) ^3H-Thymidine Incorporation and Cell Proliferation Assay. Endometrial epithelial and stromal cells were cultured either in 24- or 96-well dishes at approximate density of 2.5×10^5 and 2.5×10^4 cell/well, respectively, in the presence of 10% FBS for 48 h, they were then made quiescent in serum-free condition for 48 h as previously described. Tang et al., supra. The quiescent cells were incubated either in serum-free, or 2% FBS supplemented media, in the presence of appropriate concentrations of IL-13 and/or IL-15 and 2 μCi/ml ^3H-thymidine for 48 h. The rate of incorporated ^3H-thymidine determined as previously described. Tang et al., supra. Cell proliferation assays were preformed by seeding epithelial and stromal cells in 96-well microplates or 24 well dishes, respectively, as described above and cultured in the presence of appropriate concentrations of IL-13 and IL-15 in the presence or absence of 2% FBS. After 48 h the cells were washed and incubated with a dye solution composed of 3-(4,5-dimethylthiazol-2-yl)-2,5-diphenyltetrazolium bromide (MTT) for 4 h at 37° C., solubilized using Promega Cell-Titer assay, and the optical density was measured using Thermomax microplate reader (Molecular Devices) at 570 nm as previously described (Tang et al., supra).

[5] = system: IL-15 expression in endometrial stromal cells; assay: Effect of ovarian steroids on IL-15 expression in endometrial stromal cells (quantitative RT-PCR, ELISA); conditions: for IL-15 expression, mRNA and protein level (summary statement): endometrial stromal cells; for IL-15 expression: stromal cells, various time points
Experimental: as §3

[6] = system: endometrial epithelial cells; assay: 3H-thymidine incorporation and cell proliferation (MTT) assay, epithelial cells
Experimental: as §1, §4

[7] = system: IL-13 expression in endometrial stromal cells; assay: Effect of ovarian steroids on IL-13 expression in endometrial stromal cells (quantitative RT-PCR, ELISA); conditions: for IL-13 expression, mRNA and protein level (summary statement): endometrial stromal cells; for IL-13 expression compared to control cells: stromal cells, various time points (e.g. 4, 6, 24 and 36 h after steroid addition)
Experimental: as §3

[8] = system: IL-15 expression in endometrial epithelial cells; assay: Effect of ovarian steroids on IL-15 expression in endometrial epithelial cells (quantitative RT-PCR, ELISA); conditions: for IL-15 expression, mRNA and protein level (summary statement): endometrial epithelial cells; for IL-15 expression: epithelial cells, various time points
Experimental: as §3

Compound: IL-13: cytokine interleukin-13 added to stromal and epithelial cell cultures
- TNFα receptor type I mRNA production ([1]; 2, 4 and 6 h): increased
- TNFα receptor type I protein expression ([1]; 36 h): statistically significant increase
- TNFα receptor type I protein expression ([2]; 24 and 36 h): statistically significant increase

Compound: CC(=O)O[C@]1(C(C)=O)CC[C@H]2[C@@H]3C[C@H](C)C4=CC(=O)CC[C@]4(C)[C@H]3CC[C@@]21C [MPA, medroxyprogesterone acetate]
- IL-13 expression, mRNA and protein level (summary statement) [3]: modulate
- IL-13 expression compared to control cells ([3]; 24 and 36 h): statistically significant increase
- IL-13 expression compared to control cells ([3]; 6 h): statistically significant increase
- 3H-thymidine incorporation compared to control cells [4]: modulated
- cell proliferation compared to control cells [4]: modulated
- IL-15 expression, mRNA and protein level (summary statement) [5]: modulate
- IL-15 expression [5]: statistically significant increase
- 3H-thymidine incorporation compared to control cells [6]: modulated
- cell proliferation compared to control cells [6]: modulated
- IL-13 expression, mRNA and protein level (summary statement) [7]: modulate
- IL-13 expression compared to control cells [7]: statistically significant increase
- IL-15 expression, mRNA and protein level (summary statement) [8]: modulate
- IL-15 expression [8]: statistically significant increase

Compound: C[C@]12CC[C@@H]3c4ccc(O)cc4CC[C@H]3[C@@H]1CC[C@@H]2O [E2, 17 β estradiol]
- IL-13 expression, mRNA and protein level (summary statement) [3]: modulate
- IL-13 expression compared to control cells ([3]; 24 and 36 h): statistically significant increase
- 3H-thymidine incorporation compared to control cells [4]: modulated
- cell proliferation compared to control cells [4]: modulated
- IL-15 expression, mRNA and protein level (summary statement) [5]: modulate
- IL-15 expression [5]: statistically significant increase
- 3H-thymidine incorporation compared to control cells [6]: modulated
- cell proliferation compared to control cells [6]: modulated
- IL-13 expression, mRNA and protein level (summary statement) [7]: modulate
- IL-13 expression compared to control cells [7]: statistically significant increase
- IL-15 expression, mRNA and protein level (summary statement) [8]: modulate
- IL-15 expression [8]: statistically significant increase

Compound: IL-15: cytokine interleukin-15 added to stromal and epithelial cell cultures
- TNFα receptor type I mRNA expression compared to control cells ([2]; 6 h): marked increase
- TNFα receptor type I protein expression ([2]; 36 h): statistically significant increase

Source: patent US7049069B2, “Detecting and treating reproductive tract disorders” (University of Florida, priority 2001, dated 2006)
